Results published in patent US20190054045A1, “METHODS AND COMPOSITIONS FOR TREATING SKIN CONDITIONS” (priority 2017, published 2019).

Tests used:
surgical defect = experiment: Topical metformin to treat scarring on open skin (surgical defect, patient case); assay type: in vivo, human; details: topical ointment 250 mg/mL twice a day; within 4 weeks; in comparison to patients healing with topical petrolatum alone; observation by physician
Procedure: A patient with a previous surgical scar from removal of skin cancer with a scalpel received topical metformin ointment at 250 mg/mL with directions to apply the ointment twice a day to the surgical defect until healed (approximately 2-4 weeks).

burn scar = experiment: Topical metformin to treat a burn scar on intact skin (patient case); assay type: in vivo, human; details: 250 mg/mL in petrolatum ointment, two times per day
Procedure: A patient with a burn scar from a previously treated skin cancer complaining of a raised red and itchy scar on their chest received topical metformin in petrolatum ointment at 250 mg/mL with directions to apply the lotion to the affected area (red, raised fibrotic scarred skin on chest) two times per day.

With `CN(C)C(=N)N=C(N)N` [metformin] the “scarring and redness of area” value (surgical defect) was “minimal scaring and redness”, the “scarring of the skin” value (burn scar; after one month) was “further improved” and the “scarring of the skin (redness, itch, softness)” value (burn scar; within 14 days, observation by physician and patient) was “visibly reduced with less redness, itch, and increased softness”.
